System: MDA-MB-468 cells
Assay: MDA-MB-468 cell viability, CellTiter-Glo, 24 hrs
Format: cell-based, human
Conditions: 24 hrs incubation
Procedure: MDA-MB-468 cells, isolated from a pleural effusion of a patient with metastatic adenocarcinoma of the breast, is a triple negative breast cancer (TNBC) cell line. The IC 50 value of E05 or lapatinib (Sigma) or the structural analogues of E05 were tested in this cell line.
Briefly, MDA-MB-468 cells (ATCC #HTB-32) were seeded with a density of 5,000 cells per well in a 96 well white plate (Costar Cat #3917) in DMEM media supplemented with 10% FBS (assay medium). The plates were incubated at 37° C., 5% CO2 for 24 hr. E05 and analogues were diluted in the assay medium and added to the respective wells of the assay plate. The plates were further incubated at 37° C., 5% CO2 for 24 hrs. After the incubation, the cell viability was assessed using CellTiter-Glo® and the plates were read for luminescence using Cytation 5 (Biotek). The relative luminescence unit (RLU) obtained was plotted against the concentration and EC50 values were estimated using Graphpad Prism 5 software (FIG. 15 and Table 2).

Structure (SMILES) | Activity (EC50)
O=C(O)CCc1ccc(O)cc1O [E05_B, 3-(2,4-Hydroxyphenyl)-propionic acid] | Inactive
O=C(O)CCc1cccc(O)c1 [E05_C, 3-(3-Hydoxyphenyl)-propionic acid] | Inactive

Reference: patent US20220370385A1, “COMPOSITIONS FOR USE IN INHIBITING SRC KINASE AND TREATING AND PREVENTING ASSOCIATED DISORDERS” (Enzene Biosciences Ltd., priority 2019, published 2022)
